According to patent publication US20120095062A1, “TRICYCLIC COMPOUNDS, COMPOSITIONS, AND METHODS” (Pfizer Inc., priority 2007, published 2012):
pIC50: −log10 of the molar value. Read-outs that look alike come from different tables or passages of the source.

How the values were obtained:
[1] = tested on: IL-6, Human A549 lung epithelial cells; test: IL-6 inhibition in IL-1β-stimulated A549 cells; type: cell-based; conditions: for pIC50: A549, 20 h, A549 cells, 1 ng/mL IL-1β, 20 hours, read-out: IL-6 IC50; for inhibition: A549, A549 cells, Prednisolone (1 μM) = 100% inhibition control
Protocol: Human A549 lung epithelial cells (American Type Culture Collection, Rockville, Md.) were cultured in Kaighn's F-12K medium with penicillin-streptomycin (10 U/mL) and 10% heat-inactivated fetal bovine serum (all from Invitrogen, Grand Island, N.Y.). A549 cells were plated at a density of 30,000 cells/well in 96-well plates and incubated overnight at 37° C. and with 5% CO2. The cells were serum-starved by replacing the growth medium with serum-free Kaighn's F-12K medium with penicillin-streptomycin (10 U/mL) and, again, incubating overnight at 37° C. and with 5% CO2. On the third day, the medium was replaced with fresh serum-free medium and the cells were incubated with or without compound (vehicle was DMSO at 0.1% maximum concentration) for approximately 1 hour and then stimulated with 1 ng/mL recombinant human IL-1β (R&D Systems, Minneapolis, Minn.) for 20 hours at 37° C. and with 5% CO2. Cell supernatants were collected for determination of IL-6 levels using MSD (Meso Scale Discovery, Gaithersburg, Md.) 96-well Single Spot plates as per the manufacturer's instructions. Plates were read with an MSD Sector Imager 6000. […] Vehicle was used to define the 0% inhibition control. Percent inhibition for each compound concentration, relative to these controls, was calculated using Excel (Microsoft, Redmond, Wash.). IC50 values were generated using GraFit 5.0 data analysis software (Erithacus Software Ltd., Surrey, UK).

Serum osteocalcin = Serum osteocalcin suppression, 28-day repeat dose mouse model; type: in vivo, mice; conditions: for ED50: Mus musculus, 672 h, mice, oral gavage 28 days, serum osteocalcin
LPS-induced serum TNFα = LPS-induced serum TNFα suppression, 28-day repeat dose mouse model; type: in vivo; conditions: 672 h, mice, oral gavage 28 days
[2] = tested on: Mouse Collagen-induced arthritis; test: Therapeutic mouse collagen-induced arthritis (mCIA) model; type: in vivo; conditions: mice, dosing day 34 through day 49, read-out: Therapeutic mCIA (ED50 dose)
Description: Mouse Collagen-induced arthritis is a commonly used chronic, preclinical model of rheumatoid arthritis in which joint swelling and bone destruction occur following immunization with type II collagen. Reduction of disease incidence and severity has been shown previously to be predictive of disease-modification and signs and symptoms mitigation, respectively, in a clinical setting.
In the therapeutic mCIA model, induction of disease incidence and severity was synchronized via LPS stimulation. Male […] mice were immunized with 100 ug of bovine type II collagen (bCII) on day 0. All mice received an intraperitoneal injection of 20 μg of LPS on day 28 and disease was allowed to develop through day 34. At day 34, all mice had disease (incidence=100%) with an average severity score of seven. Dosing of compounds was initiated in the therapeutic mode on day 34 and continued through day 49. Different treatments were compared by measuring the decrease in incidence (i.e., resolution of disease) and the decrease in severity of paw swelling over time.

[3] = Plasma exposure (AUC) in the mouse; type: in vivo
[4] = tested on: Cortical bone formation rate; test: Cortical bone histomorphometry, bone formation rate (BFR); type: in vivo, mice; conditions: 28-day repeat dose model; the 11th table
Protocol: Sigma-Aldrich, St. […] Calcein incorporates into the bone mineral and allows measurement of bone formation rate. Calcein was dissolved in 2% sodium bicarbonate. During the tissue harvest, the left tibiae were excised and cleaned for cortical histomorphometry measurements. After all skin and muscle were removed, tibiae were placed in 70% ethanol (4° C.) in the dark for a minimum of 24 hours. Ground transverse sections were used for histomorphometric analysis of cortical bone. Bones were sectioned using a low-speed saw (lsomet, Buehler, Lake Bluff, Ill.) equipped with a diamond wafer blade. The end of each tibia was removed proximal to tibia-fibula synostosis and a […] cross-section was cut. Using a roughened glass plate and a cork, sections were ground to […] until transparent and all labels were distinguishable under a fluorescent microscope. […] Sigma-Aldrich, St. Louis, Mo.). Sections were mounted using Eukitt Quick Mounting Medium (#03989, Sigma-Aldrich, St. Louis, Mo.) after which coverslip was applied. […] Bone formation rate was calculated by the following equation: (Inter-label width/Label interval)*(Labeled perimeter/Bone perimeter). At least five samples were measured from each treatment group in each study.

TNFα, U937 cells = test: TNFα inhibition in LPS-stimulated differentiated U937 cells; type: cell-based; conditions: Homo sapiens
Protocol: Cells were differentiated to a monocyte/macrophage phenotype with phorbol 12-myristate 13-acetate (Sigma-Aldrich, St. Louis, Mo.), 20 ng/mL, overnight. […] Following recovery, the cells were scraped, counted, and plated in accordance to the experimental design prior to stimulation with LPS, as described below. U937 cells were differentiated and plated at a density of 200,000 cells/well in 96-well plates. […] Louis, Mo.) for four hours at 37° C. and with 5% CO2. Cell supernatants were collected for determination of TNFα levels using an in-house sandwich-type ELISA. Mouse anti-human TNFα monoclonal antibody (clone 28401.111) and biotinylated goat anti-human TNFα (R&D Systems, Minneapolis, Minn.) were used as the capture and detection antibodies, respectively. Streptavidin-horseradish peroxidase (HRP) (R&D Systems, Minneapolis, Minn.) and K-Blue Substrate/Red Stop (Neogen, Lexington, Ky.) were used as the detection system. Absorbance was measured at 650 nm. TNFα concentrations were interpolated from a human TNFα recombinant protein (R&D Systems, Minneapolis, Minn.) standard curve using a four parameter logistics model by Magellan 4.11 data analysis software (Tecan, Durham, N.C.). […] Vehicle was used to define the 0% inhibition control. Percent inhibition for each concentration of compound, relative to these controls, was calculated using Excel (Microsoft, Redmond, Wash.).

Cc1ncccc1NC(=O)c1ccc2c(c1)CC[C@@H]1C[C@@](O)(CCC(F)(F)F)CC[C@@]21Cc1ccccc1 [Comparator C, (4βS,7R,8αR)-4β-benzyl-7-hydroxy-N-(2-methylpyridin-3-yl)-7-(3,3,3-trifluoropropyl)-4β,5,6,7,8,8α,9,10-octahydrophenanthrene-2-carboxamide]
pIC50 [1]: 8.96 | inhibition [1]: 82.6% | ED50 (Serum osteocalcin): 1.01 mg/kg | ED50 (LPS-induced serum TNFα): 0.27 mg/kg | ED50 [2]: 2 mg/kg

Cc1ncccc1NC(=O)c1ccc2c(c1)C(=O)C[C@@H]1C[C@@](O)(C(F)(F)F)CC[C@@]21Cc1ccccc1 [Comparator E, (4β,7R,8αS)-4β-benzyl-7-hydroxy-N-(2-methylpyridin-3-yl)-10-oxo-7-(trifluoromethyl)-4β,5,6,7,8,8α,9,10-octahydrophenanthrene-2-carboxamide]
pIC50 [1]: 8.96 | inhibition [1]: 79.7% | ED50 (Serum osteocalcin): 0.17 mg/kg | ED50 (LPS-induced serum TNFα): 0.14 mg/kg | ED50 [2]: 0.5 mg/kg

Cc1ncccc1NC(=O)c1ccc2c(c1)[C@H](O)C[C@@H]1C[C@@](O)(C(F)(F)F)CC[C@@]21Cc1ccccc1 [Comparator F, (4βS,7R,8αR,10R)-4β-benzyl-7,10-dihydroxy-N-(2-methylpyridin-3-yl)-7-(trifluoromethyl)-4β,5,6,7,8,8α,9,10-octahydrophenanthrene-2-carboxamide]
pIC50 [1]: 8.15 | inhibition [1]: 83.3% | ED50 (Serum osteocalcin): 1.19 mg/kg | ED50 (LPS-induced serum TNFα): 2.11 mg/kg | ED50 [2]: > 10 mg/kg

Cc1ncccc1NC(=O)c1ccc2c(c1)C=C[C@@H]1C[C@@](O)(C(F)(F)F)CC[C@@]21Cc1ccccc1 [Comparator I]
pIC50 [1]: 8.55 | inhibition [1]: 67.5% | ED50 (Serum osteocalcin): 5.2 mg/kg | ED50 (LPS-induced serum TNFα): 0.73 mg/kg | ED50 [2]: 17 mg/kg

Cc1ncc(NC(=O)c2ccc3c(c2)CC[C@@H]2C[C@@](O)(CCC(F)(F)F)CC[C@@]32Cc2ccccc2)c(C)n1 [Comparator J, (4βS,7S,8αR)-4β-benzyl-N-(2,4-dimethylpyrimidin-5-yl)-7-hydroxy-7-(3,3,3-trifluoropropyl)-4β,5,6,7,8,8α,9,10-octahydrophenanthrene-2-carboxamide]
pIC50 [1]: 6.54 | inhibition [1]: 55% | ED50 (Serum osteocalcin): 0.73 mg/kg | ED50 (LPS-induced serum TNFα): 0.09 mg/kg | ED50 [2]: 3 mg/kg

Cc1ncccc1NC(=O)c1ccc2c(c1)CC[C@@H]1C[C@@](O)(C(F)(F)F)CC[C@@]21Cc1ccccc1 [Example 1, (4βS,7R,8αR)-4β-benzyl-7-hydroxy-N-(2-methylpyridin-3-yl)-7-(trifluoromethyl)-4β,5,6,7,8,8α,9,10-octahydrophenanthrene-2-carboxamide]
AUC(0-4 hr) as share of the AUC(0-24 hr) values [3]: more than 95%

C[C@]12C=CC(=O)C=C1CC[C@@H]1[C@@H]2[C@@H](O)C[C@@]2(C)[C@H]1CC[C@]2(O)C(=O)CO [Prednisolone]
AUC(0-4 hr) as share of the AUC(0-24 hr) values [3]: more than 95% | Cortical bone formation rate (BFR) EAUC50 [4]: 100 ng·h/mL | pIC50 [1]: 8.38 | inhibition [1]: 102% | IC50 ([1]; A549, value in brackets, footnote a: additional results that were found, read-out: IL-6 IC50 (nM), additional result): 4.6 nM | Serum osteocalcin (OC) EAUC50 (Serum osteocalcin; 28-day repeat dose model, the 11th table): 560 ng·h/mL | ED50 (Serum osteocalcin): 1 mg/kg | pIC50 (TNFα, U937 cells; U-937, 4 h, U937 cells, 100 ng/mL LPS, four hours, read-out: TNFα IC50): 7.83 | IC50 (TNFα, U937 cells; U-937, value in brackets, footnote a: additional results that were found, read-out: TNFα IC50 (nM), additional result): 15.6 nM | ED50 (LPS-induced serum TNFα): 0.9 mg/kg | ED50 [2]: 1.1 mg/kg
